According to the supplement of paper PMC10307832:

Columns and labels:
Test in all cases: relative viability (nuclei count vs DMSO), 5 days (fraction); higher = more cells survive
[1] = tested on: CAL-12T
In short: (§1)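 Lung cancer cell lines were pin-tool dosed in 1536-well plates on the day after seeding, with either a lone drug or a fixed anchor-drug dose plus five library-drug doses (not always all listed) in √10 steps. Nuclei were counted on 4× images after 5 days. Relative viability is the ratio of treated-well to vehicle-well nuclei counts, with each value a median of duplicate plates.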

[2] = tested on: EMC-BAC-2
In short: as §1

[3] = tested on: H3255
In short: as §1

[4] = tested on: LC-2-ad
In short: as §1

[5] = tested on: LK-2
In short: as §1

[6] = tested on: NCI-H1395
In short: as §1

[7] = tested on: NCI-H1437
In short: as §1

[8] = tested on: NCI-H1651
In short: as §1

[9] = tested on: NCI-H1755
In short: as §1

[10] = tested on: NCI-H1793
In short: as §1

[11] = tested on: NCI-H1915
In short: as §1

[12] = tested on: NCI-H1944
In short: as §1

[13] = tested on: NCI-H2085
In short: as §1

[14] = tested on: NCI-H2087
In short: as §1

[15] = tested on: NCI-H2342
In short: as §1

[16] = tested on: NCI-H2347
In short: as §1

[17] = tested on: NCI-H522
In short: as §1

[18] = tested on: PC-3 [JPC-3]
In short: as §1

With COCC1(CO)C(=O)C2CCN1CC2 (stereo not given) [PRIMA-1MET] + NC(=O)Nc1cc(-c2cccc(F)c2)sc1C(=O)N[C@H]1CCCNC1 [AZD7762] (partner 0.2 µM) the relative viability ([1]; first compound 0.2 µM) was 0.603, the relative viability ([1]; first compound 2 µM) was 0.6 and the relative viability ([1]; first compound 6.325 µM) was 0.777. The relative viability ([1]; first compound 20 µM) was 0.601, the relative viability ([2]; first compound 0.2 µM) was 1.34 and the relative viability ([2]; first compound 0.6325 µM) was 1.07. The relative viability ([2]; first compound 2 µM) was 0.989, the relative viability ([2]; first compound 6.325 µM) was 1.12 and the relative viability ([2]; first compound 20 µM) was 1.01. It also gave a relative viability ([3]; first compound 0.2 µM) of 0.945, a relative viability ([3]; first compound 0.6325 µM) of 0.873 and a relative viability ([3]; first compound 2 µM) of 0.955. It also gave a relative viability ([3]; first compound 6.325 µM) of 1.06, a relative viability ([3]; first compound 20 µM) of 0.775 and a relative viability ([4]; first compound 0.2 µM) of 0.968. The relative viability ([4]; first compound 0.6325 µM) was 0.806, the relative viability ([4]; first compound 2 µM) was 0.669 and the relative viability ([4]; first compound 6.325 µM) was 0.932. The relative viability ([4]; first compound 20 µM) was 0.791, the relative viability ([5]; first compound 0.2 µM) was 0.469 and the relative viability ([5]; first compound 0.6325 µM) was 0.405. For the same compound, the relative viability ([5]; first compound 2 µM) was 0.182, the relative viability ([5]; first compound 6.325 µM) was 0.124 and the relative viability ([5]; first compound 20 µM) was 0.0604. It also gave a relative viability ([6]; first compound 0.2 µM) of 0.376, a relative viability ([6]; first compound 2 µM) of 0.385 and a relative viability ([6]; first compound 6.325 µM) of 0.38. The relative viability ([6]; first compound 20 µM) was 0.129, the relative viability ([7]; first compound 0.2 µM) was 1.16 and the relative viability ([7]; first compound 0.6325 µM) was 1.09. The relative viability ([7]; first compound 2 µM) was 1.03, the relative viability ([7]; first compound 6.325 µM) was 1.12 and the relative viability ([7]; first compound 20 µM) was 1.05. The relative viability ([8]; first compound 0.2 µM) was 0.442, the relative viability ([8]; first compound 0.6325 µM) was 0.443 and the relative viability ([8]; first compound 2 µM) was 0.478. It also gave a relative viability ([8]; first compound 6.325 µM) of 0.513, a relative viability ([8]; first compound 20 µM) of 0.592 and a relative viability ([9]; first compound 0.2 µM) of 0.414. It also gave a relative viability ([9]; first compound 0.6325 µM) of 0.4, a relative viability ([9]; first compound 2 µM) of 0.392 and a relative viability ([9]; first compound 6.325 µM) of 0.557. It also gave a relative viability ([9]; first compound 20 µM) of 0.446, a relative viability ([10]; first compound 0.2 µM) of 0.408 and a relative viability ([10]; first compound 0.6325 µM) of 0.651. The relative viability ([10]; first compound 6.325 µM) was 0.685, the relative viability ([10]; first compound 20 µM) was 0.382 and the relative viability ([11]; first compound 0.2 µM) was 0.745. The relative viability ([11]; first compound 0.6325 µM) was 0.507, the relative viability ([11]; first compound 2 µM) was 0.517 and the relative viability ([11]; first compound 6.325 µM) was 0.82. The relative viability ([11]; first compound 20 µM) was 0.657, the relative viability ([12]; first compound 0.2 µM) was 0.661 and the relative viability ([12]; first compound 0.6325 µM) was 0.43. It also gave a relative viability ([12]; first compound 2 µM) of 0.381, a relative viability ([12]; first compound 6.325 µM) of 0.533 and a relative viability ([12]; first compound 20 µM) of 0.511. It also gave a relative viability ([13]; first compound 0.2 µM) of 1.09, a relative viability ([13]; first compound 0.6325 µM) of 1.1 and a relative viability ([13]; first compound 2 µM) of 0.588. The relative viability ([13]; first compound 6.325 µM) was 0.942, the relative viability ([13]; first compound 20 µM) was 0.176 and the relative viability ([14]; first compound 0.6325 µM) was 1.35. For the same compound, the relative viability ([14]; first compound 2 µM) was 1.29, the relative viability ([14]; first compound 6.325 µM) was 1.25 and the relative viability ([14]; first compound 20 µM) was 0.938. It also gave a relative viability ([15]; first compound 0.2 µM) of 0.566, a relative viability ([15]; first compound 0.6325 µM) of 0.371 and a relative viability ([15]; first compound 6.325 µM) of 0.531. The relative viability ([15]; first compound 20 µM) was 0.41, the relative viability ([16]; first compound 0.2 µM) was 0.709 and the relative viability ([16]; first compound 0.6325 µM) was 0.668. For the same compound, the relative viability ([16]; first compound 2 µM) was 0.569, the relative viability ([16]; first compound 6.325 µM) was 0.761 and the relative viability ([16]; first compound 20 µM) was 0.525. For the same compound, the relative viability ([17]; first compound 0.2 µM) was 0.788, the relative viability ([17]; first compound 0.6325 µM) was 0.823 and the relative viability ([17]; first compound 2 µM) was 0.838. It also gave a relative viability ([17]; first compound 6.325 µM) of 0.598, a relative viability ([17]; first compound 20 µM) of 0.283 and a relative viability ([18]; first compound 0.2 µM) of 1. The relative viability ([18]; first compound 0.6325 µM) was 0.797, the relative viability ([18]; first compound 2 µM) was 0.811 and the relative viability ([18]; first compound 6.325 µM) was 0.904. For the same compound, the relative viability ([18]; first compound 20 µM) was 0.672.
